# Source: patent US20240352073A1, “BICYCLIC PEPTIDE INHIBITORS OF INTERLEUKIN-23 RECEPTOR” (Janssen Biotech, Inc., priority 2021, published 2024)
# Read-outs that look alike come from different tables or passages of the source. Where a SMILES comes first, the peptide text is derived from it. Bridges are numbered along the chain shown (N, C = ends). [ ]: non-standard residue; d: D form. The star is where a group is joined. Me3N+(CH2)2O(CH2)2O(CH2)2CO = C[N+](C)(C)CCOCCOCCC(=O)*; Trp(7-Me) = Cc1cccc2c(C[C@H](N)C(=O)O)c[nH]c12; 2Nal = N[C@@H](Cc1ccc2ccccc2c1)C(=O)O; AEF = NCCOc1ccc(C[C@H](N)C(=O)O)cc1; 3Pal = N[C@@H](Cc1cccnc1)C(=O)O; Aad = N[C@@H](CCCC(=O)O)C(=O)O; Lys(Me) = CNCCCC[C@H](N)C(=O)O; Pen = CC(C)(S)[C@H](N)C(=O)O; Thp = NC1(C(=O)O)CCOCC1; X1 = C[N+](C)(C)CCCCC*; Sar = CNCC(=O)O
# Assays:
# [1] = target: T1, peripheral blood mononuclear cells (PBMCs) stimulated with IL-23 (Homo sapiens, UniProt Q5VWK5); test: PBMC pSTAT3 assay; type: cell-based; details: PBMCs from healthy donors; IL-23 5 ng/mL, 30 minutes; phosphorylated STAT3 in lysates
# T1 sequence (Q5VWK5 24-629): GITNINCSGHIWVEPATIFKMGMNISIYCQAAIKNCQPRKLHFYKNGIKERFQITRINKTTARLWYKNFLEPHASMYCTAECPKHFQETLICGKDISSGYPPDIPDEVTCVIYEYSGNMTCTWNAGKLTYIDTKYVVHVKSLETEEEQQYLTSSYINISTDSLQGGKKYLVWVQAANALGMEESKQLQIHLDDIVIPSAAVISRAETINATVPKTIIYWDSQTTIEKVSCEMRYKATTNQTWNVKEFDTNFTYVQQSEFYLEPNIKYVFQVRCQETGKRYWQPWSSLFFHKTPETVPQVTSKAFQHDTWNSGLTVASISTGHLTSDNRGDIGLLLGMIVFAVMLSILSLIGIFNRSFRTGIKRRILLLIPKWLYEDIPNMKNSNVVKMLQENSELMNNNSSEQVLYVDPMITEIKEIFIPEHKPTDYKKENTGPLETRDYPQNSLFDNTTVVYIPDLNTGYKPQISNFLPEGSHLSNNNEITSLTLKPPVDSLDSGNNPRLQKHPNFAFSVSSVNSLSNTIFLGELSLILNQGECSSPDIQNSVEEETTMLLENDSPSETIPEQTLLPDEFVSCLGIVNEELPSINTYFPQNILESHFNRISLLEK
# Experimental: Cryopreserved peripheral blood mononuclear cells (PBMCs) from healthy donors were thawed and washed twice in ImmunoCult-XF T cell expansion medium (XF-TCEM) supplemented with CTL anti-aggregate wash. The cells were counted, resuspended at 2×10^5 cells per mL XF-TCEM supplemented with penicillin/streptomycin and 100 ng/mL […] (BioLegend, 579404), and cultured in tissue culture flasks coated with anti-CD3 (eBioscience, 16-0037-85 or BD Pharmingen, 555329) at 37° C. in 5% C02. On day 4 of culture, PBMCs were collected, washed twice in RPMI-1640 supplemented with 0.1% BSA (RPMI-BSA), and incubated in RPMI-BSA in upright tissue culture flasks for 4 hours at 37° C. in 5% C02. Following this ‘starvation,’ a total of 6×10^4 cells in 30 μL RPMI-BSA was transferred into each well of a 384-well plate pre-spotted with peptide or DMSO. The cells were incubated for 30 minutes prior to the addition of IL-23 at a final concentration of 5 ng/mL. The cells were stimulated with cytokine for 30 minutes at 37° C. in 5% C02, transferred onto ice for 10 minutes, and lysed. Cell lysates were stored at −80° C. until phosphorylated STAT3 was measured using the phospho-STAT panel kit (Meso Scale Discovery, K15202D). The results produced with PBMCs are provide in Table 5 below for several from Examples along with data from the IL23R Reporter Assays utilizing HEK293 cells described above. […]
# IL-23R = target: T2, IL-23R (Homo sapiens, UniProt Q5VWK5); test: IL-23R reporter assay (HEK293, STAT-inducible luciferase); type: cell-based; details: Table 4; HEK293 cells with IL-23R, IL-12Rβ1 and STAT-inducible luciferase reporter, stimulated with IL-23
# T2 construct: host or cells: HEK293
# T2 sequence (Q5VWK5 24-629): T1 sequence (Q5VWK5 24-629)
# Experimental: Example 4. IL-23R Reporter Assay
# Compounds were serially diluted in 100% (v/v) DMSO) and plated using an Echo acoustic dispenser (Labcyte) into 1536-well non-treated black assay plates (Corning #9146). […] After 5 h at 37° C., 5% CO2, 95% relative humidity, cells were placed at 20° C. and treated with BioGlo reagent (Promega) according to the manufacturer's instructions. Luminescence was measured on a Pherastar FSX (BMG LabTech). […] Where multiple measurements have been made the average is shown with the number of replicates indicated in parenthesis following the IC50 values.
# [2] = the molecule shown is the open-chain precursor, 20-membered ring
molecule,measurement,setting,value
PEG2(2)-Pen(3)-N-T-7MeW-K(Ac)-Pen(3)-AEF-2Nal-THP-hE(2)-N-3Pya-Sar-CONH2,"ring closure, yield after HPLC","amide bond, 32-membered ring, HATU/DIEA, then N2H4, DMF, 4.8 mM, 2 steps",14%
"ac-Pen(1:3)-Dap(2:3)-T-Trp 7Me-Lvs Ac-Pen(1:3)-Phe 4 2ae(3:3)-Nal-THP-Lys Ac—N—H-Sar-am-PEG4DA(x,2:1,3:2)","ring closure, yield after HPLC","crosslinker bond, 39-membered ring, PEG4DA-NHS/DIEA, DMF, 1.0 mM",50%
CC(=O)N(C)CCCC[C@@H]1NC(=O)[C@H](Cc2c[nH]c3c(C)cccc23)NC(=O)[C@H]([C@@H](C)O)NC(=O)[C@H](CC(=O)N(C)C)NC(=O)[C@H]2NC(=O)[C@H](NC(=O)CCOCCOCC[N+](C)(C)C)CCCCNC(=O)CCC[C@@H](C(=O)N[C@@H](CC(N)=O)C(=O)N[C@@H](Cc3cccnc3)C(=O)N(C)CC(=O)N(C)C)NC(=O)C3(CCOCC3)NC(=O)[C@H](Cc3ccc4ccccc4c3)NC(=O)[C@H](Cc3ccc(OCCCCC[N+](C)(C)C)cc3)NC(=O)[C@@H](NC1=O)C(C)(C)SSC2(C)C [Compd 319] ({Me3N+(CH2)2O(CH2)2O(CH2)2CO}-[dK][Pen]D(NMe2)T[Trp(7-Me)][Lys(Me)](Ac)[Pen]Y(X1)[2Nal][Thp][Aad]N[3Pal][Sar]-NMe2; lactam 1-11; disulfide 2-7),IC50,[1],0.0079 nM
"CC(=O)NCCCC[C@@H]1NC(=O)[C@H](Cc2c[nH]c3c(C)cccc23)NC(=O)[C@H]([C@@H](C)O)NC(=O)[C@H](CC(N)=O)NC(=O)[C@@H](NC(=O)CCCCCCN)C(C)(C)SSC(C)(C)[C@@H](C(=O)N[C@H]2Cc3ccc(cc3)OCCNC(=O)CC[C@@H](C(=O)N[C@@H](CC(N)=O)C(=O)NC3(C(N)=O)CCOCC3)NC(=O)C3(CCOCC3)NC(=O)[C@H](Cc3ccc4ccccc4c3)NC2=O)NC1=O [Example 139, [7AminoHeptanoic Acid]-[Pen]-N-T-[W(7-Me)]-[Lys(Ac)]-[Pen]-[Phe(4-(2-aminoethoxy))]-[2Nal]-[THP]-E-N-[THP]-NH2]",IC50,IL-23R,> 16600 nM
CC(=O)N[C@H](CCCCN)C(=O)N[C@@H]1C(=O)N[C@@H](CCC(N)=O)C(=O)N[C@@H]([C@@H](C)O)C(=O)N[C@@H](Cc2c[nH]c3ccccc23)C(=O)N[C@@H](CCC(N)=O)C(=O)N[C@H](C(=O)N[C@@H](Cc2ccc(OCCNC(C)=C3C(=O)CC(C)(C)CC3=O)cc2)C(=O)N[C@@H](Cc2ccc3ccccc3c2)C(=O)NC2(C(=O)N[C@@H](CCC(=O)O)C(=O)N[C@@H](CC(N)=O)C(=O)NCCC(N)=O)CCOCC2)C(C)(C)SSC1(C)C,"ring closure, yield after HPLC","from Ac-dLys-Pen-Gln-Thr-Trp-Gln-Pen-AEF(Dde)-2Nal-THP-Glu-Asn-bAla-NH2?, disulfide bond, 20-membered ring, I2/AcOH, H2O/MeCN 1:1, 0.5 mM",48%
McCO-k(2)-Pen(3)-O-T-W-Q-Pen(3)-AEF-2Nal-THP-E(2)-N-bAla-CONH2,"ring closure, yield after HPLC","amide bond, 29-membered ring, HATU/DIEA, then N2H4, DMF, […], 2 steps",49%
Ac-Pen-Glu-Thr-Trp_7Me-Lys(Ac)-Pen-Phe_4_2ae-2Nal-THP-Lys(Ac)-Asn-His-Sar-NH2,"ring closure, yield after HPLC","the molecule shown is the open-chain precursor, disulfide bond, 20-membered ring, I2/MeOH, MeCN/H2O 20:80, 1.0 mM, with chain assembly",30%
6Ahx(2)-Abu(1)-N-T-W-Q-C(1)-AEF-2Nal-THP-E(2)-N-3Pya-Sar-CONH2,"ring closure, yield after HPLC","amide bond, 29-membered ring, PyBOP/DIEA, DMF, 5.0 mM",5%
Ac-O2R-Pen-Gln-Thr-Trp-Gln-Pen-Phe[4-(2-aminoethoxy)]-2Nal-THP-O2R-Asn-bAla-NH2,"ring closure, yield after HPLC","the molecule shown is the open-chain precursor, disulfide bond, 20-membered ring, I2/AcOH, then Boc2O/DIEA, H2O/MeCN, 0.55 mM, 2 steps",40%
H-PEG2-Pen-Asn-Thr-7MeTrp-Lys(Ac)-Pen-AEF(Dde)-2Nal-THP-hGlu-Asn-3Pya-Sar-NH2,"ring closure, isolated yield","[2]; disulfide bond, I2/MeOH, H2O/MeCN 1:1, 0.46 mM",32%
ac-Pen(1:3)-E(2:3)-T-Trp 7Me-Lys Ac-Pen(1:3)-Phe 4 2ae(2:3)-Nal-THP-Lys Ac—N—H-Sar-am,"ring closure, yield after HPLC","amide bond, 24-membered ring, PyBOP/DIEA, DMF, 1.0 mM",50%
7Ahp(2)-Pen(3)-N-T-7MeW-K(Ac)-Pen(3)-AEF-2Nal-THP-E(2)-N-3Pya-Sar-CONH2,"ring closure, yield after HPLC","amide bond, 30-membered ring, PyBOP/DIEA, DMF, 5.0 mM",13%
"CC(=O)NCCCC[C@@H]1NC(=O)[C@H](Cc2c[nH]c3ccccc23)NC(=O)[C@H]([C@@H](C)O)NC(=O)[C@H]2CCC(=O)NCCOc3ccc(cc3)C[C@@H](C(=O)N[C@@H](Cc3ccc4ccccc4c3)C(=O)NC3(C(=O)N[C@@H](CCCCNC(C)=O)C(=O)N[C@@H](CO)C(=O)N[C@@H](Cc4cccnc4)C(=O)N(C)CC(N)=O)CCOCC3)NC(=O)[C@@H](NC1=O)C(C)(C)SSC(C)(C)[C@H](NC(C)=O)C(=O)N2 [Example 4, Ac-[Pen]-E-T-W-[Lys(Ac)]-[Pen]-[Phe(4-(2-aminoethoxy))]-[2Nal]-[THP]-[Lys(Ac)]-S-[3Pal]-[Sarc]-NH2] (Ac-[Pen][dE]TWK(Ac)[Pen][AEF][2Nal][Thp]K(Ac)S[3Pal][Sar]-NH2; disulfide 1-6; lactam 2-7)",IC50,IL-23R,330 nM
H-7Ahp-Pen-Asn-Thr-7MeTrp-Lys(Ac)-Pen-AEF-2Nal-THP-Glu-Asn-3Pya-Sar-NH2,"ring closure, isolated yield","[2]; disulfide bond, I2/MeOH, MeCN/H2O 30:70, 1.0 mM",30.3%
"CC(=O)NCCCC[C@@H]1NC(=O)[C@H](Cc2c[nH]c3c(C)cccc23)NC(=O)[C@H]([C@@H](C)O)NC(=O)[C@H](CC(N)=O)NC(=O)[C@@H](NC(=O)CCCCCCN)C(C)(C)SSC(C)(C)[C@@H](C(=O)N[C@H]2Cc3ccc(cc3)OCCNC(=O)CC[C@@H](C(=O)N[C@@H](CC(N)=O)C(=O)N[C@@H](Cc3cccnc3)C(=O)N(C)CC(N)=O)NC(=O)C3(CCOCC3)NC(=O)[C@H](Cc3ccc4ccccc4c3)NC2=O)NC1=O [Example 137, [7AminoHeptanoicAcid]-[Pen]-N-T-[W(7-Me)]-[Lys(Ac)]-[Pen]-[Phe(4-(2-aminoethoxy))]-[2Nal]-[THP]-E-N-[3Pal]-[Sarc]-NH2]",IC50,IL-23R,430 nM
McCO-Glu-Pen-N-T-7MeW-K(Ac)-Pen-AEF-2Nal-THP—K(Ac)—N-3Pva-Sar-CONH2,"ring closure, yield after HPLC","amide bond, 24-membered ring, HATU/DIEA, DMF, 0.24 mM, 2 steps",10%
H-6Ahx-Abu(4-Cl)-Asn-Thr-Trp-Gln-Cys-AEF-2Nal-THP-Glu-Asn-3Pya-Sar-NH2?,"ring closure, isolated yield","[2]; thioether bond, NaI/EDTA/Na2CO3, DMF, 1.07 mM",21%
"CC(=O)NCCCC[C@@H]1NC(=O)[C@H](Cc2c[nH]c3c(C)cccc23)NC(=O)[C@H]([C@@H](C)O)NC(=O)[C@H](CC(N)=O)NC(=O)[C@H]2NC(=O)CCCCCCNC(=O)CC[C@@H](C(=O)N[C@@H](CC(N)=O)C(=O)N(C)[C@H](Cc3ccc(O)cc3)C(N)=O)NC(=O)C3(CCOCC3)NC(=O)[C@H](Cc3ccc4ccccc4c3)NC(=O)[C@H](Cc3ccc(OCCN)cc3)NC(=O)[C@@H](NC1=O)C(C)(C)SSC2(C)C [Example 25, [7AminoHeptanoicAcid]-[Pen]-N-T-[W(7-Me)]-[Lys(Ac)]-[Pen]-[Phe(4-(2-aminoethoxy))]-[2Nal]-[THP]-E-N-[(D)NMeTyr]-NH2]",IC50,IL-23R,830 nM
